Measured values: patent publication US11464770B2, “Anticancer pharmaceutical composition” (NATIONAL CANCER CENTER, priority 2016, dated 2022)
Read-outs that look alike come from different tables or passages of the source.

Legend:
[1] = test system: prostate cancer cell lines (e.g. DU145/TXR); experiment: Cell based assay, cell viability (CellTiter-Glo), prostate cancer cell lines; conditions: Homo sapiens, 72 hours treatment, final concentration 0 to 2 μM
In short: (§1)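 Cell lines seeded, cultured 24 hours, then exposed to compound at final 0 to 2 μM. After a further 72 hours, viability measured by ATP-detection luminescence (CellTiter-Glo).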

brain cancer cell lines = experiment: Cell based assay, cell viability (CellTiter-Glo), brain cancer cell lines; conditions: Homo sapiens
melanoma cell lines = experiment: Cell based assay, cell viability (CellTiter-Glo), melanoma cell lines; conditions: Homo sapiens; LOX-IMVI cell line
In short: as §1

liver cancer cell lines = experiment: Cell based assay, cell viability (CellTiter-Glo), liver cancer cell lines; conditions: Homo sapiens, SK-HEP1; SK-HEP-1 cell line
In short: as §1

[2] = test system: cervical carcinoma cell lines; experiment: Cell based assay, cell viability (CellTiter-Glo), cervical carcinoma cell lines; conditions: Homo sapiens; HeLa cells
[3] = test system: ovarian cancer cell lines; experiment: Cell based assay, cell viability (CellTiter-Glo), ovarian cancer cell lines; conditions: Homo sapiens; OVCAR-3 cells
In short: as §1

[4] = test system: RT4: human urinary bladder transitional cell papilloma; experiment: Cell based assay, cytotoxicity in RT4 papilloma cells (selectivity); conditions: Homo sapiens, RT-4; RT4 cells
[5] = CWR22 cells, read-out: IC50, prostate cancer cell line CWR22
[6] = DU-145, DU145 cells, read-out: IC50, prostate cancer cell line DU145
[7] = LNcap cells, read-out: IC50, prostate cancer cell line LNcap
[8] = PC-3 cells, read-out: IC50, prostate cancer cell line PC-3
[9] = U138-MG, U-138 MG cell line, read-out: IC50, Brain cancer cell line U-138 MG
[10] = T98G cell line, read-out: IC50, Brain cancer cell line T98G
[11] = U-251 MG cell line, read-out: IC50, Brain cancer cell line U-251 MG
[12] = DU-145, DU145/TXR cells, read-out: IC50, prostate cancer cell line DU145/TXR

| Structure (SMILES) | IC50 [1, 5] [nM] | IC50 [1, 6] [nM] | IC50 [1, 7] [nM] | IC50 [1, 8] [nM] | IC50 (brain cancer cell lines; [9]) [nM] | IC50 (brain cancer cell lines; [10]) [nM] | IC50 (brain cancer cell lines; [11]) [nM] | IC50 (melanoma cell lines) [nM] | IC50 (liver cancer cell lines) [nM] | IC50 [2] [nM] | IC50 [3] [nM] | IC50 [1, 12] [nM] | IC50 [4] [nM] |
| --- | --- | --- | --- | --- | --- | --- | --- | --- | --- | --- | --- | --- | --- |
| CC(=O)c1c([S+]([O-])Cc2ccc([N+](=O)[O-])cc2)[nH]c2c(Br)ccc(Cl)c2c1=O (stereo not shown) [Compound 33, 3-acetyl-8-bromo-5-chloro-2-((4-nitrobenzyl)sulfinyl)quinolin-4(1H)-one] | 1340 | 1630 | 1840 | 1580 | > 2000 | > 10000 | 1110 | 1130 | 1080 | > 10000 | 1180 | 1340 | > 10000 |
| CC(=O)c1c([S+]([O-])Cc2cc(F)cc(F)c2)[nH]c2c(Br)ccc(Cl)c2c1=O (stereo not shown) [Compound 46, 3-acetyl-8-bromo-5-chloro-2-((3,5-difluorobenzyl)sulfinyl)quinolin-4(1H)-one] | > 2000 | > 2000 | > 2000 | > 2000 | > 2000 | > 10000 | > 2000 | 1570 | 1310 | > 10000 | 1020 | 1560 | > 10000 |
| CC(=O)c1c([S+]([O-])Cc2cccc(F)c2)[nH]c2c(Br)ccc(Cl)c2c1=O (stereo not shown) [Compound 50, 3-acetyl-8-bromo-5-chloro-2-((3-fluorobenzyl)sulfinyl)quinolin-4(1H)-one] | > 2000 | 1770 | > 2000 | 1600 | > 2000 | > 10000 | 1280 | 1510 | 1350 | > 10000 | 890 | 1280 | > 10000 |
| COc1cccc(C[S+]([O-])c2[nH]c3c(Br)ccc(Cl)c3c(=O)c2C(C)=O)c1 (stereo not shown) [Compound 55, 3-acetyl-8-bromo-5-chloro-2-((3-methoxybenzyl)sulfinyl)quinolin-4(1H)-one] | > 2000 | > 2000 | > 2000 | 1930 | > 2000 | > 10000 | > 2000 | 1620 | 1430 | > 10000 | 920 | 1390 | > 10000 |
| CC(=O)c1c([S+]([O-])Cc2ccc([N+](=O)[O-])cc2)[nH]c2c(Cl)ccc(Cl)c2c1=O (stereo not shown) [Compound 57, 3-acetyl-5,8-dichloro-2-((4-nitrobenzyl)sulfinyl)quinolin-4(1H)-one] | > 2000 | > 2000 | > 2000 | > 2000 | > 10000 | > 10000 | > 2000 | > 2000 | > 2000 | > 10000 | > 2000 | > 2000 | > 10000 |
| CC(=O)c1c([S+]([O-])Cc2ccc(C(C)(C)C)cc2)[nH]c2c(Br)ccc(Cl)c2c1=O (stereo not shown) [Compound 60, 3-acetyl-8-bromo-2-((4-(tert-butyl)benzyl)sulfinyl)-5-chloroquinolin-4(1H)-one] | > 2000 | > 2000 | > 2000 | 1820 | > 2000 | > 10000 | > 2000 | 1670 | > 2000 | > 10000 | > 2000 | 1260 | > 10000 |
| CC(=O)c1c([S+]([O-])Cc2c(F)c(F)c(F)c(F)c2F)[nH]c2c(Br)ccc(Cl)c2c1=O (stereo not shown) [Compound 78, 3-acetyl-8-bromo-5-chloro-2-(((perfluorophenyl)methyl)sulfinyl)quinolin-4(1H)-one] | > 2000 | 1150 | > 2000 | 1530 | > 2000 | > 10000 | > 2000 | 1370 | – | > 10000 | 1010 | 1380 | > 10000 |

More lines, main results first:

| IC50 [1, 5] [nM] | IC50 [1, 6] [nM] | IC50 [1, 7] [nM] | IC50 [1, 8] [nM] | IC50 (brain cancer cell lines; [9]) [nM] | IC50 (brain cancer cell lines; [10]) [nM] | IC50 (brain cancer cell lines; [11]) [nM] | IC50 (melanoma cell lines) [nM] | IC50 (liver cancer cell lines) [nM] | IC50 [2] [nM] | IC50 [3] [nM] | IC50 [1, 12] [nM] | Structure (SMILES) | IC50 [4] [nM] |
| --- | --- | --- | --- | --- | --- | --- | --- | --- | --- | --- | --- | --- | --- |
| 1770 | 1730 | 1550 | 1460 | 1380 | > 10000 | 1140 | 1240 | 1030 | > 10000 | 800 | – | CC(=O)c1c([S+]([O-])Cc2ccc(F)cc2F)[nH]c2c(Br)ccc(Cl)c2c1=O (stereo not shown) [Compound 29, 3-acetyl-8-bromo-5-chloro-2-((2,4-difluorobenzyl)sulfinyl)quinolin-4(1H)-one] | > 10000 |
| 1590 | 1440 | 1640 | 1410 | 1790 | > 10000 | 1090 | 1110 | – | > 10000 | 710 | 930 | CC(=O)c1c([S+]([O-])Cc2ccc(F)c(Cl)c2)[nH]c2c(Br)ccc(Cl)c2c1=O (stereo not shown) [Compound 31, 3-acetyl-8-bromo-5-chloro-2-((3-chloro-4-fluorobenzyl)sulfinyl)quinolin-4(1H)-one] | > 10000 |
| > 2000 | > 2000 | – | – | > 2000 | > 10000 | > 2000 | 1630 | 1720 | > 10000 | 990 | 1590 | CC(=O)c1c(S(=O)(=O)Cc2ccccc2)[nH]c2c(Br)ccc(Cl)c2c1=O [Compound 34, 3-acetyl-2-(benzylsulfonyl)-8-bromo-5-chloroquinolin-4(1H)-one] | > 10000 |
| 1580 | 1600 | 1980 | 1490 | > 2000 | > 10000 | 1050 | 1640 | 940 | > 10000 | 840 | 1000 | CC(=O)c1c([S+]([O-])Cc2cc(Cl)ccc2Cl)[nH]c2c(Br)ccc(Cl)c2c1=O (stereo not shown) [Compound 44, 3-acetyl-8-bromo-5-chloro-2-((2,5-dichlorobenzyl)sulfinyl)quinolin-4(1H)-one] | > 10000 |
| 1030 | 1240 | 1240 | 1360 | 1920 | > 10000 | > 2000 | 1460 | 1310 | > 10000 | 850 | 1120 | CC(=O)c1c([S+]([O-])Cc2cc(C)on2)[nH]c2c(Br)ccc(Cl)c2c1=O (stereo not shown) [Compound 51, 3-acetyl-8-bromo-5-chloro-2-(((5-methylisoxazol-3-yl)methyl)sulfinyl)quinolin-4(1H)-one] | > 10000 |
| 1550 | 1420 | 1820 | 1300 | 1340 | > 10000 | 1170 | 1090 | 1020 | > 2000 | 1090 | 860 | CC(=O)c1c([S+]([O-])Cc2ccc(SC(F)(F)F)cc2)[nH]c2c(Br)ccc(Cl)c2c1=O (stereo not shown) [Compound 56, 3-acetyl-8-bromo-5-chloro-2-((4-((trifluoromethyl)thio)benzyl)sulfinyl)quinolin-4(1H)-one] | > 10000 |
| 1560 | 1490 | > 2000 | 1640 | 1500 | > 10000 | 1280 | 1060 | 910 | > 10000 | 840 | – | COc1cc(C[S+]([O-])c2[nH]c3c(Br)ccc(Cl)c3c(=O)c2C(C)=O)cc(OC)c1 (stereo not shown) [Compound 59, 3-acetyl-8-bromo-5-chloro-2-((3,5-dimethoxybenzyl)sulfinyl)quinolin-4(1H)-one] | > 10000 |
| 1490 | 1570 | 1710 | 1430 | 1430 | > 10000 | > 2000 | 1050 | 870 | > 10000 | 900 | 1160 | CC(=O)c1c([S+]([O-])Cc2ccc([S+]([O-])C(F)(F)F)cc2)[nH]c2c(Br)ccc(Cl)c2c1=O (stereo not shown) [Compound 64, 3-acetyl-8-bromo-5-chloro-2-((4-((trifluoromethyl)sulfinyl)benzyl)sulfinyl)quinolin-4(1H)-one] | > 10000 |
| 1890 | 1090 | > 2000 | 1250 | 1520 | > 10000 | 1140 | 1190 | 1030 | > 10000 | 1180 | 1190 | CC(=O)c1c([S+]([O-])Cc2ccc(C(F)(F)F)cc2)[nH]c2c(Br)ccc(Cl)c2c1=O (stereo not shown) [Compound 70, 3-acetyl-8-bromo-5-chloro-2-((4-(trifluoromethyl)benzyl)sulfinyl)quinolin-4(1H)-one] | > 10000 |
